Reference: patent US11919965B2, “Methods of treating multiple myeloma with bispecific anti-BCMA x anti-CD3 antibodies” (Regeneron Pharmaceuticals, Inc., priority 2019, dated 2024)

Assays:
[1] = tested on: BCMA-expressing NCI-H929 multiple myeloma tumors; assay: Xenogenic tumor model, NCI-H929 + human PBMC s.c. in NSG mice, dose response, treatment from implantation (Example 11); format: in vivo, mouse
Procedure: To determine the in vivo efficacy of anti-BCMA×anti-CD3 bispecific antibodies (Abs), a xenogenic tumor study was performed. Immunodeficient NOD.Cg-Prkdc^ScidII2rg^tm1Wjl/SzJ (NSG) mice were subcutaneously implanted with a mixture of 10×10^6 BCMA-expressing NCI-H929 human multiple myeloma tumor cells and 0.5×10^6 human peripheral blood mononuclear cells (PBMC) isolated from a normal, healthy donor. […] The mice were administered these Abs twice per week for a total of seven doses, and tumor growth was assessed over 60 days. While BCMA+NCI-H929 tumors grew similarly in the vehicle- and CD3-binding control-treated mice, both anti-BCMA×anti-CD3 Abs that were tested prevented the growth of tumors in a dose-dependent manner in vivo.
Implantation and measurement of xenogenic tumors: NSG mice were subcutaneously implanted with a mixture of 10×10^6 BCMA-expressing NCI-H929 multiple myeloma cells and 0.5×10^6 PBMC derived from a normal, healthy donor. […] The mice were administered Abs twice per week for a total of seven doses. Tumor growth was measured with calipers twice per week for the duration of the experiment.
Calculation of xenogenic tumor growth and inhibition: In order to determine tumor volume by external caliper, the greatest longitudinal diameter (length in mm) and the greatest transverse diameter (width in mm) were determined. Tumor volumes based on caliper measurements were calculated by the formula: Volume (mm^3)=(length× width^2)/2.

[2] = tested on: Jurkat/NFATLuc.3C7 reporter cells with HEK293 cells (BCMA negative); assay: Jurkat/NFATLuc reporter bioassay (T-cell activation); format: cell-based, human
Procedure: (§1) Activity of the anti-BCMA×anti-CD3 bispecific antibodies were assessed in a Jurkat/NFATLuc reporter bioassay utilizing several cell lines with varying levels of BCMA surface expression. The Jurkat cells were engineered to express an NFAT-luciferase reporter (Jurkat/NFATLuc.3C7), and 50,000 Jurkat reporter cells were combined with 50,000 BCMA positive (Daudi, MM1-S, NCI-H929, OPM-2, RPMI-8226, MOLP-8, or Raji) or BCMA negative (HEK293) cells in Thermo Nunclon delta 96 well white microwell plates (Thermo Scientific, Cat #136102) in 50 ul of assay media (RPMI media with 10% FBS and 1% P/S/G). Three-fold serial dilutions of the BCMA×CD3 bispecific antibodies (mAb25441D or mAb25442D), or a bivalent anti-BCMA antibody (mAb21581) were immediately added in 50 uL of assay buffer. The plates were gently agitated and incubated in a 37° C., 5% CO2 incubator for 4-6 hours. NFAT-Luciferase activity was determined using Promega One-Glo (Cat #E6130) and a Perkin Elmer Envision plate reader. RLU were plotted in GraphPad Prism using a four-parameter logistic equation over a 12-point response curve to calculate EC50 values. The no antibody treatment condition for each dose-response curve is also included in the analysis as a continuation of the three-fold serial dilution and is represented as the lowest dose. The signal to noise (S:N) is determined by taking the ratio of the highest RLU on the curve to the lowest.

[3] = tested on: Jurkat/NFATLuc.3C7 reporter cells with MM1-S cells (BCMA positive); assay: as above; format: cell-based, human
Procedure: as §1

[4] = tested on: BCMA+ OPM-2-luciferase tumors; assay: Xenogenic tumor model, i.v. OPM-2-luciferase in PBMC-engrafted NSG mice, bioluminescence (Example 15); format: in vivo, mouse; conditions: 0.4 mg/kg
Procedure: (§2) To determine the in vivo efficacy of anti-BCMA×anti-CD3 bispecific antibodies (Abs), a xenogenic tumor study was performed. On day 0, immunodeficient NOD.Cg-Prkdc^scidII2rg^tm1Wjl/SzJ (NSG) mice were intravenously administered 2×10^6 BCMA^+ OPM-2 human multiple myeloma tumor cells that were engineered to also express firefly luciferase (OPM-2-luciferase cells). On day 10, the mice were intraperitoneally injected with 4×10^6 human peripheral blood mononuclear cells (PBMC) from a normal, healthy donor. […] The mice were administered these Abs twice more on days 25 and 28, for a total of three doses. Tumor growth was assessed through day 61 by measuring tumor bioluminescence (BLI) in anesthetized animals. As a positive control, a group of mice (n=5) was given only OPM-2-luciferase cells, but not PBMC or antibody.
as §2, with “Implantation and measurement” for “To determine the in vivo efficacy”, “of” for “of anti-BCMA×anti-CD3 bispecific antibodies (Abs), a”, “tumors:” for “tumor study was performed.”, “NOD.Cg-Prkdc^scidII2rg^tm1Wkl/SzJ” for “NOD.Cg-Prkdc^scidII2rg^tm1Wjl/SzJ”
Measurement of xenogenic tumor growth: BLI imaging was used to measure tumor burden. Mice were injected IP with 150 mg/kg of the luciferase substrate D-luciferin suspended in PBS. Five minutes after this injection, BLI imaging of the mice was performed under isoflurane anesthesia using the Xenogen IVIS system. Image acquisition was carried out with the field of view at D, subject height of 1.5 cm, and medium binning level with automatic exposure time determined by the Living Image Software. BLI signals were extracted using Living Image software: regions of interest were drawn around each tumor mass and photon intensities were recorded as p/s/cm2/sr.

## REGN5458: anti-BCMA×anti-CD3 bispecific antibody: mAb21581 BCMA heavy chain, mAb7221G CD3 heavy chain and common light chain; SEQ ID NOs 126, 127, 129
[1]; 0.04 mg/kg
  Average Tumor Size (mm3) ± SEM on Day 7: 30.8 ± 5.5 mm3
  Average Tumor Size (mm3) ± SEM on Day 12: 71.5 ± 22.4 mm3
  Average Tumor Size (mm3) ± SEM on Day 15: 133.4 ± 50.9 mm3
  Average Tumor Size (mm3) ± SEM on Day 19: 413.7 ± 162.7 mm3
  Average Tumor Size (mm3) ± SEM on Day 22: 669.4 ± 248.5 mm3
  Average Tumor Size (mm3) ± SEM on Day 26: 1167.0 ± 431.7 mm3
  Average Tumor Size (mm3) ± SEM on Day 29: 1781.8 ± 620.7 mm3
[1]; 0.4 mg/kg
  Average Tumor Size (mm3) ± SEM on Day 4: 31.9 ± 2.0 mm3
  Average Tumor Size (mm3) ± SEM on Day 7: 11.3 ± 3.0 mm3
  Average Tumor Size (mm3) ± SEM on Day 15: 0 ± 0 mm3
  Average Tumor Size (mm3) ± SEM on Day 19: 0 ± 0 mm3
  Average Tumor Size (mm3) ± SEM on Day 22: 0 ± 0 mm3
  Average Tumor Size (mm3) ± SEM on Day 26: 0 ± 0 mm3
  Average Tumor Size (mm3) ± SEM on Day 29: 0 ± 0 mm3
  Average Tumor Size (mm3) ± SEM on Day 34: 0 ± 0 mm3
  Average Tumor Size (mm3) ± SEM on Day 39: 0 ± 0 mm3
  Average Tumor Size (mm3) ± SEM on Day 42: 0 ± 0 mm3
  Average Tumor Size (mm3) ± SEM on Day 46: 0 ± 0 mm3
  Average Tumor Size (mm3) ± SEM on Day 55: 0 ± 0 mm3
  Average Tumor Size (mm3) ± SEM on Day 60: 0 ± 0 mm3
[1]; 4 mg/kg
  Average Tumor Size (mm3) ± SEM on Day 4: 18.0 ± 1.2 mm3
  Average Tumor Size (mm3) ± SEM on Day 12: 0 ± 0 mm3
  Average Tumor Size (mm3) ± SEM on Day 15: 0 ± 0 mm3
  Average Tumor Size (mm3) ± SEM on Day 19: 0 ± 0 mm3
  Average Tumor Size (mm3) ± SEM on Day 22: 0 ± 0 mm3
  Average Tumor Size (mm3) ± SEM on Day 26: 0 ± 0 mm3
  Average Tumor Size (mm3) ± SEM on Day 29: 0 ± 0 mm3
  Average Tumor Size (mm3) ± SEM on Day 34: 0 ± 0 mm3
  Average Tumor Size (mm3) ± SEM on Day 39: 0 ± 0 mm3
  Average Tumor Size (mm3) ± SEM on Day 42: 0 ± 0 mm3
  Average Tumor Size (mm3) ± SEM on Day 46: 0 ± 0 mm3
  Average Tumor Size (mm3) ± SEM on Day 55: 0 ± 0 mm3
  Average Tumor Size (mm3) ± SEM on Day 60: 0 ± 0 mm3
[2]
  S:N (highest RLU to lowest): 1
[3]
  S:N (highest RLU to lowest): 165
[4]
  Radiance [p/s/cm2^2/sr] 26 days post-implantation (mean ± SEM): 1.73E+06 ± 8.69E+05 p/s/cm2^2/sr
  Radiance [p/s/cm2^2/sr] 31 days post-implantation (mean ± SEM): 3.50E+06 ± 2.42E+06 p/s/cm2^2/sr
  Radiance [p/s/cm2^2/sr] 34 days post-implantation (mean ± SEM): 4.85E+06 ± 3.24E+06 p/s/cm2^2/sr
  Radiance [p/s/cm2^2/sr] 38 days post-implantation (mean ± SEM): 5.30E+06 ± 3.44E+06 p/s/cm2^2/sr
  Radiance [p/s/cm2^2/sr] 40 days post-implantation (mean ± SEM): 5.06E+06 ± 3.36E+06 p/s/cm2^2/sr
  Radiance [p/s/cm2^2/sr] 47 days post-implantation (mean ± SEM): 7.76E+05 ± 7.85E+04 p/s/cm2^2/sr
  Radiance [p/s/cm2^2/sr] 54 days post-implantation (mean ± SEM): 5.78E+05 ± 1.15E+05 p/s/cm2^2/sr
  Radiance [p/s/cm2^2/sr] 61 days post-implantation (mean ± SEM): 5.23E+05 ± 4.10E+04 p/s/cm2^2/sr
[4]; three doses
  tumor burden: reduced tumor burdens to background levels in the majority of animals
[4]; before first dose (day 21)
  Radiance [p/s/cm2^2/sr] 5 days post-implantation (mean ± SEM): 5.87E+05 ± 2.40E+04 p/s/cm2^2/sr
  Radiance [p/s/cm2^2/sr] 11 days post-implantation (mean ± SEM): 6.19E+05 ± 4.39E+04 p/s/cm2^2/sr
  Radiance [p/s/cm2^2/sr] 20 days post-implantation (mean ± SEM): 1.81E+06 ± 2.37E+05 p/s/cm2^2/sr
